The structures appear in SMILES notation.

The target in the test is T1, full-length MALT1 protein His-MALT1(1-824) (Homo sapiens, UniProt Q9UDY8).
T1 construct: full-length MALT1 protein His-MALT1(1-824); His (N); made in house; host or cells: baculovirus-infected insect cells
T1 sequence (Q9UDY8 1-824): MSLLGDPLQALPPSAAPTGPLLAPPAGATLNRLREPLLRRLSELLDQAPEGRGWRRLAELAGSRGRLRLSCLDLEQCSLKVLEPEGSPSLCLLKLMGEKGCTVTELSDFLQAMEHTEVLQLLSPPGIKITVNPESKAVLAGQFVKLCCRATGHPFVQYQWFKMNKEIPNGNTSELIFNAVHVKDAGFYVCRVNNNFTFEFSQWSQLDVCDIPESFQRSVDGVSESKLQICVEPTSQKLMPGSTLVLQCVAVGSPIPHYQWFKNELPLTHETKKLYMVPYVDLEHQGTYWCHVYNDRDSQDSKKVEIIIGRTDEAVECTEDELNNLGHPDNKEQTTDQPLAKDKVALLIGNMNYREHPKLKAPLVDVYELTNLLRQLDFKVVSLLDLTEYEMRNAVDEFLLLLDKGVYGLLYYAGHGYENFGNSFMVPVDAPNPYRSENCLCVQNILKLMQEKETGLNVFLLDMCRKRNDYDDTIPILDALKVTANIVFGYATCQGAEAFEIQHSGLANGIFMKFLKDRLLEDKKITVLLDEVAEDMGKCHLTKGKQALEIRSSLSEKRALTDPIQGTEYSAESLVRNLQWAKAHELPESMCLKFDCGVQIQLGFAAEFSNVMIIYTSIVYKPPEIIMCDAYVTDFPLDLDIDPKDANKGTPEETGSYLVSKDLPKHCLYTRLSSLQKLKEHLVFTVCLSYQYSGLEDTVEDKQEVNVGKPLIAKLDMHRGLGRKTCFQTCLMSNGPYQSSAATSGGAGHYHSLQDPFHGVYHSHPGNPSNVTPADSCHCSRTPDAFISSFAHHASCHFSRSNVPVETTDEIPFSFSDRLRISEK
Kind of test: MALT1 protease assay, Assay 2 (1 nM MALT1, Ac-LRSR-AMC substrate). It is filed as biochemical. Conditions: 1 nM MALT1, 50 μM Ac-LRSR-AMC, 2 h pre-incubation, 8 hr incubation at RT. The essentials:
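Full-length His-MALT1(1-824) from baculovirus-infected insect cells, pre-incubated with compound 2 h at RT (0.1% DMSO). Then 50 μM Ac-LRSR-AMC added. Buffer was Tris pH 7.5 with 600 mM sodium citrate, DTT, EDTA and BSA. Fluorescence (ex 355/em 460 nm) was read after 8 h at RT and normalized to high/low controls. IC50 from non-linear regression.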

As for `CC1(C)CC(C(=O)Nc2cc(C(F)F)c(-c3ccno3)c(=O)[nH]2)c2cnc3cc(Cl)nn3c21` (stereo not shown) [Example 60, 2-chloro-N-(4-(difluoromethyl)-5-(isoxazol-5-yl)-6-oxo-1,6-dihydropyridin-2-yl)-8,8-dimethyl-7,8-dihydro-6H-cyclopenta[e]pyrazolo[1,5-a]pyrimidine-6-carboxamide], the IC50 was in the range of 100 to 1000 nM.
As for `CC1(C)CC(C(=O)Nc2cc(C(F)F)c(-n3nccn3)c(=O)[nH]2)c2cnc3cc(Cl)nn3c21` (stereo not shown) [Example 61, 2-chloro-N-(4-(difluoromethyl)-6-oxo-5˜(2H-1,2,3-triazol-2-yl)-1,6-dihydropyridin-2-yl)-8,8-dimethyl-7,8-dihydro-6H-cyclopenta[e]pyrazolo[1,5-a]pyrimidine-6-carboxamide], the figure is 10 to 100 nM.
As for `CC1(C)CC(C(=O)Nc2cc(C(F)F)c(-n3cccn3)c(=O)[nH]2)c2cnc3cc(Cl)nn3c21` (stereo not shown) [Example 62, 2-chloro-N-(4-(difluoromethyl)-6-oxo-5-(1H-pyrazol-1-yl)-1,6-dihydropyridin-2-yl)-8,8-dimethyl-7,8-dihydro-6H-cyclopenta[e]pyrazolo[1,5-a]pyrimidine-6-carboxamide], the figure is 10 to 100 nM; as for `CC1(C)CC(O)(C(=O)Nc2cnc(-n3nccn3)c(Cl)c2)c2cnc3cc(Cl)nn3c21` (stereo not shown) [Example 69, 2-chloro-N-(5-chloro-6-(2H-1,2,3-triazol-2-yl)pyridin-3-yl)-6-hydroxy-8,8-dimethyl-7,8-dihydro-6H-cyclopenta[e]pyrazolo[1,5-a]pyrimidine-6-carboxamide], at least 1000 nM.
In the case of `N#Cc1cc(NC(=O)C2CC3(CC3)c3c2cnc2cc(F)nn32)cnc1OC(F)F` (stereo not shown) [Example 82, N-(5-cyano-6-(difluoromethoxy)pyridin-3-yl)-2-fluoro-6,7-dihydrospiro[cyclopenta[e]pyrazolo[1,5-a]pyrimidine-8,1′-cyclopropane]-6-carboxamide] it was 10 to 100 nM.
For the molecule `CC1(C)CC(C(=O)Nc2cc(C#N)c(OC(F)F)nn2)c2cnc3cc(F)nn3c21` (stereo not shown) [Example 85, N-(5-cyano-6-(difluoromethoxy)pyridazin-3-yl)-2-fluoro-8,8-dimethyl-7,8-dihydro-6H-cyclopenta[e]pyrazolo[1,5-a]pyrimidine-6-carboxamide], the IC50 fell in the range of 100 to 1000 nM.
In the case of `CC1(C)CC(C(=O)Nc2cnc(C(=O)NC3CC3)c(C(F)(F)F)c2)c2cnc3cc(Cl)nn3c21` (stereo not shown) [Example 112, 2-chloro-N-(6-(cyclopropylcarbamoyl)-5˜(trifluoromethyl)pyridin-3-yl)-8,8-dimethyl-7,8-dihydro-6H-cyclopenta[e]pyrazolo[1,5-a]pyrimidine-6-carboxamide] it was 100 to 1000 nM; in that of `CCNC(=O)c1ncc(NC(=O)C2CC(C)(C)c3c2cnc2cc(Cl)nn32)cc1C(F)(F)F` (stereo not shown) [Example 115, 2-chloro-N-(6-(ethylcarbamoyl)-5˜(trifluoromethyl)pyridin-3-yl)-8,8-dimethyl-7,8-dihydro-6H-cyclopenta[e]pyrazolo[1,5-a]pyrimidine-6-carboxamide], 10 to 100 nM.
As for `CC1(C)CC(C(=O)Nc2cnc(C(=O)N3CCC3)c(C(F)(F)F)c2)c2cnc3cc(Cl)nn3c21` (stereo not shown) [Example 118, N-(6-(azetidine-1-carbonyl)-5˜(trifluoromethyl)pyridin-3-yl)-2-chloro-8,8-dimethyl-7,8-dihydro-6H-cyclopenta[e]pyrazolo[1,5-a]pyrimidine-6-carboxamide], the figure is 10 to 100 nM; as for `CC1(C)CC(C(=O)Nc2cnc(-n3cc(C4COC4)nn3)c(Cl)c2)c2cnc3cc(Cl)nn3c21` (stereo not shown) [Example 119, 2-chloro-N-(5-chloro-6-(4-(oxetan-3-yl)-1H-1,2,3-triazol-1-yl)pyridin-3-yl)-8,8-dimethyl-7,8-dihydro-6H-cyclopenta[e]pyrazolo[1,5-a]pyrimidine-6-carboxamide], 100 to 1000 nM; as for `CC1(C)CC(C(=O)Nc2cnc(-n3ncnn3)c(Cl)c2)c2cnc3cc(Cl)nn3c21` (stereo not shown) [Example 120, 2-chloro-N-(5-chloro-6-(2H-tetrazol-2-yl)pyridin-3-yl)-8,8-dimethyl-7,8-dihydro-6H-cyclopenta[e]pyrazolo[1,5-a]pyrimidine-6-carboxamide], 10 to 100 nM.
As for `CC1(C)CC(C(=O)Nc2cnc(-n3ncc(C#N)n3)c(Cl)c2)c2cnc3cc(Cl)nn3c21` (stereo not shown) [Example 137, 2-chloro-N-(5-chloro-6-(4-cyano-2H-1,2,3-triazol-2-yl)pyridin-3-yl)-8,8-dimethyl-7,8-dihydro-6H-cyclopenta[e]pyrazolo[1,5-a]pyrimidine-6-carboxamide], the figure is at least 1000 nM; as for `CC1(C)CC(C(=O)Nc2cnc(-c3nnn(C4COC4)n3)c(Cl)c2)c2cnc3cc(Cl)nn3c21` (stereo not shown) [Example 162, 2-chloro-N-(5-chloro-6-(2-(oxetan-3-yl)-2H-tetrazol-5-yl)pyridin-3-yl)-8,8-dimethyl-7,8-dihydro-6H-cyclopenta[e]pyrazolo[1,5-a]pyrimidine-6-carboxamide], 10 to 100 nM; as for `CC1(C)CC(C(=O)Nc2cnc(-c3nnnn3C3COC3)c(Cl)c2)c2cnc3cc(Cl)nn3c21` (stereo not shown) [Example 163, 2-chloro-N-(5-chloro-6-(1-(oxetan-3-yl)-1H-tetrazol-5-yl)pyridin-3-yl)-8,8-dimethyl-7,8-dihydro-6H-cyclopenta[e]pyrazolo[1,5-a]pyrimidine-6-carboxamide], 100 to 1000 nM.
On to `CC1(C)CC(C(=O)Nc2cnc(C(=O)N3CC(F)(F)C3)c(C(F)(F)F)c2)c2cnc3cc(Cl)nn3c21` (stereo not shown) [Example 164, 2-chloro-N-(6-(3,3-difluoroazetidine-1-carbonyl)-5˜(trifluoromethyl)pyridin-3-yl)-8,8-dimethyl-7,8-dihydro-6H-cyclopenta[e]pyrazolo[1,5-a]pyrimidine-6-carboxamide], for which the IC50 lay within 100 to 1000 nM.
In the case of `O=C(Nc1cnc(-n2nccn2)c(Cl)c1)C1CC2(COC2)c2c1cnc1cc(Cl)nn21` (stereo not shown) [Example 165, 2-chloro-N-(5-chloro-6-(2H-1,2,3-triazol-2-yl)pyridin-3-yl)-6,7-dihydrospiro[cyclopenta[e]pyrazolo[1,5-a]pyrimidine-8,3′-oxetane]-6-carboxamide] it was at least 1000 nM; in that of `CC(C)(C)C1OC(=O)c2cc(NC(=O)C3CC4(CCC4)c4c3cnc3cc(F)nn43)cnc21` (stereo not shown) [Example 166, N-(7-(tert-butyl)-5-oxo-5,7-dihydrofuro[3,4-b]pyridin-3-yl)-2′-fluoro-6′,7′-dihydrospiro[cyclobutane-1,8′-cyclopenta[e]pyrazolo[1,5-a]pyrimidine]-6′-carboxamide], at least 1000 nM; in that of `Cc1cc2c(F)cc3c(n2n1)C(C)(C)CC3C(=O)Nc1cnc(-n2nccn2)c(Cl)c1` (stereo not shown) [Example 171, N-(5-chloro-6-(2H-1,2,3-triazol-2-yl)pyridin-3-yl)-4-fluoro-2,8,8-trimethyl-7,8-dihydro-6H-cyclopenta[e]pyrazolo[1,5-a]pyridine-6-carboxamide], 10 to 100 nM.
As for `CC1(C)CC(C(=O)Nc2cnc(C(=O)N3CC(F)(F)C3)c(C(F)F)c2)c2cnc3cc(Cl)nn3c21` (stereo not shown) [Example 174, 2-chloro-N-(6-(3,3-difluoroazetidine-1-carbonyl)-5-(difluoromethyl)pyridin-3-yl)-8,8-dimethyl-7,8-dihydro-6H-cyclopenta[e]pyrazolo[1,5-a]pyrimidine-6-carboxamide], the figure is 100 to 1000 nM.
In the case of `CC1(C)CC(C(=O)Nc2cnc(N3CCCC3=O)c(Cl)c2)c2cnc3cc(F)nn3c21` (stereo not shown) [Example 175, N-(5-chloro-6-(2-oxopyrrolidin-1-yl)pyridin-3-yl)-2-fluoro-8,8-dimethyl-7,8-dihydro-6H-cyclopenta[e]pyrazolo[1,5-a]pyrimidine-6-carboxamide] it was at least 1000 nM.
`CC1(C)CC(C(=O)Nc2cnc(N3CCC3=O)c(Cl)c2)c2cnc3cc(F)nn3c21` (stereo not shown) [Example 176, N-(5-chloro-6-(2-oxoazetidin-1-yl)pyridin-3-yl)-2-fluoro-8,8-dimethyl-7,8-dihydro-6H-cyclopenta[e]pyrazolo[1,5-a]pyrimidine-6-carboxamide] displayed an IC50 of 100 to 1000 nM.
In the case of `Cc1cc(NC(=O)C2CC(C)(C)c3c2cnc2cc(F)nn32)cnc1-c1ccn(C)n1` (stereo not shown) [Example 177, 2-fluoro-8,8-dimethyl-N-(5-methyl-6-(1-methyl-1H-pyrazol-3-yl)pyridin-3-yl)-7,8-dihydro-6H-cyclopenta[e]pyrazolo[1,5-a]pyrimidine-6-carboxamide] it was 100 to 1000 nM.

One may read the IC50 as the concentration that inhibits the measured activity by half.
